Measured values from PubChem BioAssay AID1963869 (Molecular Pharmacology Branch, DTP, NCI, 2024).
“And” between values parts separate entries of the source, which are not always exact repeats. Identical values can stand only once.

System: KRAS patient-derived spheroids with HUVEC/MSC, viability
Test: Anticancer human tumor 323965-272-R-J2-PDC patient-derived pancreatic carcinoma cell line growth inhibition [KRAS2]
Details: for viability, T/C: stronger effect = lower value
Method in brief: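 KRAS-mutant tumor cells were grown as spheroids with HUVEC endothelial cells and human MSCs as stroma. Targeted agents were tested alone and with KRAS pathway inhibitors. Doses started at or near clinical Cmax, or 10 microM, descending half-log.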

[1] = curve of first compound, second compound 0.1 µM
[2] = curve of first compound, second compound 0.316 µM
[3] = curve of first compound, second compound 1 µM
[4] = curve of first compound, second compound 3.16 µM
[5] = second compound 0.1 µM, first compound 0.01 µM
[6] = second compound 0.1 µM, first compound 0.0316 µM
[7] = second compound 0.1 µM, first compound 0.1 µM
[8] = second compound 0.1 µM, first compound 0.316 µM
[9] = second compound 0.1 µM, first compound 1 µM
[10] = second compound 0.1 µM, first compound 3.16 µM
[11] = second compound 0.316 µM, first compound 0.01 µM
[12] = second compound 0.316 µM, first compound 0.0316 µM
[13] = second compound 0.316 µM, first compound 0.1 µM
[14] = second compound 0.316 µM, first compound 0.316 µM
[15] = second compound 0.316 µM, first compound 1 µM
[16] = second compound 0.316 µM, first compound 3.16 µM
[17] = second compound 1 µM, first compound 0.01 µM
[18] = second compound 1 µM, first compound 0.0316 µM
[19] = second compound 1 µM, first compound 0.1 µM
[20] = second compound 1 µM, first compound 0.316 µM
[21] = second compound 1 µM, first compound 1 µM
[22] = second compound 1 µM, first compound 3.16 µM
[23] = second compound 3.16 µM, first compound 0.01 µM
[24] = second compound 3.16 µM, first compound 0.0316 µM
[25] = second compound 3.16 µM, first compound 0.1 µM
[26] = second compound 3.16 µM, first compound 0.316 µM
[27] = second compound 3.16 µM, first compound 1 µM
[28] = second compound 3.16 µM, first compound 3.16 µM
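Also: spheroids exposed to agents for 7 days.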
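For viability, T/C in this document: 100% = DMSO vehicle control viability.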

Compound	IC50 [1]	IC50 [2]	IC50 [3]	IC50 [4]	viability, T/C [5]	viability, T/C [6]	viability, T/C [7]	viability, T/C [8]	viability, T/C [9]	viability, T/C [10]	viability, T/C [11]	viability, T/C [12]	viability, T/C [13]	viability, T/C [14]	viability, T/C [15]	viability, T/C [16]	viability, T/C [17]	viability, T/C [18]	viability, T/C [19]	viability, T/C [20]	other results
CC(=O)OC12COC1CC(O)C1(C)C(=O)C(O)C3=C(C)C(OC(=O)C(O)C(NC(=O)OC(C)(C)C)c4ccccc4)CC(O)(C(OC(=O)c4ccccc4)C21)C3(C)C (configuration not stated) + C=CC(=O)N1CCN(c2nc(OCC3CCCN3C)nc3c2CCN(c2cccc4cccc(C)c24)C3)CC1CC#N	< 10 nM	< 10 nM	< 10 nM	< 10 nM	21.5%	22.9%	18.7%	20.7%	20.7%	21.2%	20.1%	21.1%	19.7%	17.9%	30.9%	21.3%	19.4%	17.4%	18.2%	16%	IC50 (curve of first compound, second compound 0.0316 µM): < 10 nM; viability, T/C (second compound 0.0316 µM, first compound 0.01 µM): 25.4%; viability, T/C (second compound 0.0316 µM, first compound 0.0316 µM): 23.9%; viability, T/C (second compound 0.0316 µM, first compound 0.1 µM): 22.6%; viability, T/C (second compound 0.0316 µM, first compound 0.316 µM): 23.2%; viability, T/C (second compound 0.0316 µM, first compound 1 µM): 22.9%; viability, T/C (second compound 0.0316 µM, first compound 3.16 µM): 23.6%; viability, T/C [21]: 17.1%; viability, T/C [22]: 17.2%; viability, T/C [23]: 31.7%; viability, T/C [24]: 31.1%; viability, T/C [25]: 26.5%; viability, T/C [26]: 24.8%; viability, T/C [27]: 27.7%; viability, T/C [28]: 31.2%
COc1cc(Nc2ncc3c(n2)-c2ccc(Cl)cc2C(c2c(F)cccc2OC)=NC3)ccc1C(=O)O	–	–	–	–	–	–	–	–	–	–	–	–	–	–	–	–	–	–	–	–	viability, T/C (compound 0.0316 µM): 91.7% [middle of 5 runs]; viability, T/C (compound 0.1 µM): 72.2% [middle of 5 runs]; viability, T/C (compound 0.316 µM): 45.2% [middle of 5 runs]; viability, T/C (compound 1 µM): 51.5% [middle of 5 runs]; viability, T/C (compound 3.16 µM): 65.7% [middle of 5 runs]; viability, T/C (compound 10 µM): 69% [middle of 5 runs]; IC50 (curve of compound): 10000 nM and > 10000 nM
CC1COCCN1c1cc(-c2ccnn2C)c2ccnc(-c3ccn[nH]3)c2n1 (configuration not stated) + C=CC(=O)N1CCN(c2nc(=O)n(-c3c(C)ccnc3C(C)C)c3nc(-c4c(O)cccc4F)c(F)cc23)C(C)C1	11.6 nM	< 10 nM	11.9 nM	< 10 nM	53.6%	28%	18.7%	13.7%	13.8%	11.8%	44.2%	28.8%	18%	14.4%	16.1%	12.6%	54.1%	28%	18.9%	14.5%	IC50 (curve of first compound, second compound 10 µM): < 10 nM; viability, T/C [21]: 14.1%; viability, T/C [22]: 13.5%; viability, T/C [23]: 40.6%; viability, T/C [24]: 22.8%; viability, T/C [25]: 15.5%; viability, T/C [26]: 14.1%; viability, T/C [27]: 13.3%; viability, T/C [28]: 12.8%; viability, T/C (second compound 10 µM, first compound 0.01 µM): 20.9%; viability, T/C (second compound 10 µM, first compound 0.0316 µM): 17.4%; viability, T/C (second compound 10 µM, first compound 0.1 µM): 16.8%; viability, T/C (second compound 10 µM, first compound 0.316 µM): 13.2%; viability, T/C (second compound 10 µM, first compound 1 µM): 13.4%; viability, T/C (second compound 10 µM, first compound 3.16 µM): 13.2%
